Data set [1] concerns RS4-11. Nature of the data set: Antitumor activity against human RS4-11 cells xenografted in BALB/c nu/nu mouse reduction in DYRK1A autophosphorylation of S520 residue at 6.25 mg/kg, po measured after 6 hrs by western blotting analysis relative to control. The class given is functional. Details: scale not given: the % may be the effect or the level left. A general note: Xenograft models place foreign cells or tissue in a host animal.

The test system of data set [2] is A2780. The experiment in a line: Antitumor activity against human A2780 cells xenografted in Balb/c mouse assessed as inhibition of tumor growth at 9.5 mg/kg, po bid for 14 days relative to control. The class given is functional. To be noted: 336 h, time 14 day, read-out: TGI.
Data set [3] has as its system A2780. The experiment in a line: cells. The following applies: Homo sapiens.
The nature of data set [4]: Toxicity in Balb/c nude mouse xenografted with human A2780 cells assessed as decrease in body weight at 75 mg/kg, po bid for 14 days relative to control. The format is organism-based. Details: scale not given: the % may be the effect or the level left. The following applies: in vivo, 336 h, time 14 day.
Data set [5] has as its system A2780. The experiment in a line: Antitumour activity against human A2780 cells xenografted in Balb/c mouse assessed as tumor volume T/C at 18.75 mg/kg, po bid for 14 days relative to control. To be noted: time 14 day.
Data set [6] deals with Dual specificity protein kinase CLK4 (Homo sapiens) (UniProt Q9HAZ1). Nature of the data set: Residual activity of CLK4 (unknown origin) at 10 nM using Ulight-MBP as substrate and ATP as co-substrate incubated for 40 mins and measured after 1 hr by TR-FRET assay relative to control. To be noted: time 100.0 min. For orientation: In TR-FRET formats the signal depends on donor and acceptor labels being close together.

The subject of data set [7] is RS4-11. Nature of the data set: Antitumor activity against human RS4-11 cells xenografted in BALB/c nu/nu mouse assessed as reduction in DYRK1A autophosphorylation of S520 residue at 12.5 mg/kg, po measured after 6 hrs by western blotting analysis relative to control. Further details: scale not given: the % may be the effect or the level left. The format is functional.

Data set [8] relates to A2780. Nature of the data set: Antitumor activity against human A2780 cells xenografted in BALB/c […] mouse assessed as reduction in DYRK1A autophosphorylation of S520 residue at 37.5 mg/kg, po measured after 6 hrs by western blotting analysis relative to control. The class given is functional. Details: scale not given: the % may be the effect or the level left.
The subject of data set [9] is A2780. The experiment in a line: Antitumor activity against human A2780 cells xenografted in BALB/c nu/nu mouse assessed as reduction in DYRK1A autophosphorylation of S520 residue at 37.5 mg/kg, po measured after 2 hrs by western blotting analysis relative to control. The class given is functional. Details: scale not given: the % may be the effect or the level left.

Data set [10] concerns A2780. The experiment in a line: Antitumor activity against human A2780 cells xenografted in Balb/c mouse assessed as inhibition of tumor growth at 37.5 mg/kg, po bid for 14 days relative to control. To be noted: 336 h, time 14 day, read-out: TGI. The class given is functional.
For data set [11], the system named is A2780. Nature of the data set: Antitumor activity against human A2780 cells xenografted in BALB/c nu/nu mouse assessed as reduction in DYRK1A autophosphorylation of S520 residue at 9.375 mg/kg, po measured after 2 hrs by western blotting analysis relative to control. The class given is functional. Details: scale not given: the % may be the effect or the level left.

The subject of data set [12] is A2780. The experiment in a line: Antitumor activity against human A2780 cells xenografted in Balb/c mouse assessed as inhibition of tumor growth at 75 mg/kg, po bid for 14 days relative to control. The class given is functional. The following applies: 336 h, time 14 day, read-out: TGI.
Data set [13] relates to A2780. Nature of the data set: Antitumor activity against human A2780 cells xenografted in BALB/c nu/nu mouse assessed as reduction in DYRK1A autophosphorylation of S520 residue at 4.687 mg/kg, po measured after 2 hrs by western blotting analysis relative to control. The format is functional. Details: scale not given: the % may be the effect or the level left.
Data set [14] concerns A2780. Nature of the data set: Antitumour activity against human A2780 cells xenografted in mouse assessed as reduction in DYRK1A autophosphorylation of S520 residue at 4.687 mg/kg, po meausred after 6 hrs by western blotting analysis relative to control. The class given is functional. Further details: scale not given: the % may be the effect or the level left.
Data set [15] deals with A2780. Nature of the data set: Antitumor activity against human A2780 cells xenografted in Balb/c mouse assessed as tumor volume T/C at 4.75 mg/kg, po bid for 14 days relative to control. To be noted: time 14 day.
In data set [16] the target is Dual specificity protein kinase CLK2 (Homo sapiens) (UniProt P49760). The experiment in a line: Residual activity of CLK2 (unknown origin) at 10 nM using Ulight-MBP as substrate and ATP as co-substrate incubated for 40 mins and measured after 1 hr by TR-FRET assay relative to control. The following applies: time 100.0 min.
The nature of data set [17]: Oral bioavailability in BALB/c nu/nu mouse at 3 mg/kg. The class given is ADME, organism-based. The following applies: in vivo.
Data set [18] is described as follows: Toxicity in Balb/c nude mouse xenografted with human A2780 cells assessed as decrease in body weight at 18.75 mg/kg, po bid for 14 days relative to control. The format is organism-based. Details: scale not given: the % may be the effect or the level left. To be noted: in vivo, 336 h, time 14 day.
Data set [19] concerns SK-N-MC. The experiment in a line: cells. To be noted: Homo sapiens.
Data set [20] deals with T1, Dual specificity tyrosine-phosphorylation-regulated kinase 2 (Homo sapiens) (UniProt Q92630).
T1 sequence (whole entry): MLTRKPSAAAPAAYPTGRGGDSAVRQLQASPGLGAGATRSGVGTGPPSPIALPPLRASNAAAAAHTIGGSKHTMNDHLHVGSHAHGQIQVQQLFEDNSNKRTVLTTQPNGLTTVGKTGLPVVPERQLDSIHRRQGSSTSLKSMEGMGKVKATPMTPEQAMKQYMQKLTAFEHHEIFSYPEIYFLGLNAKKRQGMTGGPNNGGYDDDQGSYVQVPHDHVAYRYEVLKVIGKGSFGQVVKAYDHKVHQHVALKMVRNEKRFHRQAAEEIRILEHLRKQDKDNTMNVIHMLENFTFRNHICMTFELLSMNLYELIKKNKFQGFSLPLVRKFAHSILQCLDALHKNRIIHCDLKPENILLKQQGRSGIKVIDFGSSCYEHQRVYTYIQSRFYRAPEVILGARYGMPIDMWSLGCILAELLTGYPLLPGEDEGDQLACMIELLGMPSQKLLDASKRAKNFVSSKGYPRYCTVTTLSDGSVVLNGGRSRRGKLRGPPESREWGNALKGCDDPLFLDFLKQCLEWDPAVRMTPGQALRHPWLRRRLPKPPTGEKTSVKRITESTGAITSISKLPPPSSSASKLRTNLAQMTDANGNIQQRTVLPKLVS
The experiment in a line: Residual activity of DYRK2 (unknown origin) at 10 nM using Ulight-MBP as substrate and ATP as co-substrate incubated for 40 mins and measured after 1 hr by TR-FRET assay relative to control. The following applies: time 100.0 min.

Data set [21] has as its target hERG (KCNH2) (Homo sapiens, UniProt Q12809). The experiment in a line: Inhibition of hERG at 10 uM by patch clamp method relative to control. The format is toxicity. On the technique in general: The hERG channel carries a current that helps repolarise heart muscle cells.
Data set [22] has as its system A2780. Nature of the data set: Antitumour activity against human A2780 cells xenografted in Balb/c mouse assessed as tumor volume T/C at 9.5 mg/kg, po bid for 14 days relative to control. To be noted: time 14 day.
Data set [23] concerns RS4-11. The experiment in a line: Antitumor activity against human RS4-11 cells xenografted in BALB/c nu/nu mouse assessed as reduction in DYRK1A autophosphorylation of S520 residue at 12.5 mg/kg, po measured after 2 hrs by western blotting analysis relative to control. The format is functional. Details: scale not given: the % may be the effect or the level left.
Data set [24] has as its system RS4-11. The experiment in a line: Antitumor activity against human RS4-11 cells xenografted in BALB/c nu/nu mouse assessed as reduction in DYRK1A autophosphorylation of S520 residue at 25 mg/kg, po measured after 6 hrs by western blotting analysis relative to control. Further details: scale not given: the % may be the effect or the level left. The format is functional.

SMILES strings stand for the structures.

Sequence of hERG (KCNH2) (Q12809 whole entry): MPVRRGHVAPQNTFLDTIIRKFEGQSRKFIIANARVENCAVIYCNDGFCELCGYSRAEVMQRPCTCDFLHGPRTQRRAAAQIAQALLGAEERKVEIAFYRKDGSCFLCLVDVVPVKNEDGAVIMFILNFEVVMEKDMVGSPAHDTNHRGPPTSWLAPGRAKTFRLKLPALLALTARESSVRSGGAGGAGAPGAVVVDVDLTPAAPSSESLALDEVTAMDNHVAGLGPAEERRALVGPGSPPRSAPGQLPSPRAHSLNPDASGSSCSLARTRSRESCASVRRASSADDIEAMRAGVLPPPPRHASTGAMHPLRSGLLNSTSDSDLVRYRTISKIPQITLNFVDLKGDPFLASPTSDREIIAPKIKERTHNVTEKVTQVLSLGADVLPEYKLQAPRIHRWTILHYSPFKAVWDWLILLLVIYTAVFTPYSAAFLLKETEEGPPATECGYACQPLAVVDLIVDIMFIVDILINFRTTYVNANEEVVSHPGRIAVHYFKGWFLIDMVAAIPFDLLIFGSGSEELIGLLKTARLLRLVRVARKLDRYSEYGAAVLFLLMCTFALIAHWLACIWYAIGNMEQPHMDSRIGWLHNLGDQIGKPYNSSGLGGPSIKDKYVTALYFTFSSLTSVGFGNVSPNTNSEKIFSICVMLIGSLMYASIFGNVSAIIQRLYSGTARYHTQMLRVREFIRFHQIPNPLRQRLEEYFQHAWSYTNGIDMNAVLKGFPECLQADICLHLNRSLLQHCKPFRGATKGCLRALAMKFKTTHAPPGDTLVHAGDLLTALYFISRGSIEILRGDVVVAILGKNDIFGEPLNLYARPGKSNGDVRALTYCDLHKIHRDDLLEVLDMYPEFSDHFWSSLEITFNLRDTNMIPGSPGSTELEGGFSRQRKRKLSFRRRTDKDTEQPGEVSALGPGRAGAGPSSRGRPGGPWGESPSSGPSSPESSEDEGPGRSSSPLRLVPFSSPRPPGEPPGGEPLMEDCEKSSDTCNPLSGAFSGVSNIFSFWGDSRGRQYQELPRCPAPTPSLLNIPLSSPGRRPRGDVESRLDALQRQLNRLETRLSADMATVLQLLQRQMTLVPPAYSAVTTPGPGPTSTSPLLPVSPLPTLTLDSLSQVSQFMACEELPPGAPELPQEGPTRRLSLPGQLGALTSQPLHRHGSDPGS
Sequence of Dual specificity protein kinase CLK4 (Homo sapiens) (Q9HAZ1 whole entry, looked up): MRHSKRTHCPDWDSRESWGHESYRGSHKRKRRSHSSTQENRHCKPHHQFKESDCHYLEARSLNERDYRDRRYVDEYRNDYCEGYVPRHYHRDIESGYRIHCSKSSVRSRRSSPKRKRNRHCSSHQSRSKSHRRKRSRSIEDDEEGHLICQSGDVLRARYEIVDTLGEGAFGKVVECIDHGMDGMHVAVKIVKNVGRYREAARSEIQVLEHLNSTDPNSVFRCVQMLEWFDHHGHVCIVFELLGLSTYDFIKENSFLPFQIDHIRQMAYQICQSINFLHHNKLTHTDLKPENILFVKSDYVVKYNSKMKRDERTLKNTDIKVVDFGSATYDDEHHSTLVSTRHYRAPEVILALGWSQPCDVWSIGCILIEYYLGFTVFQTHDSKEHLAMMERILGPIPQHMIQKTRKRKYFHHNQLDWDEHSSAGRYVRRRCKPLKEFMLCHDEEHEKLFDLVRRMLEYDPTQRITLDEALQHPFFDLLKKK
Sequence of Dual specificity protein kinase CLK2 (Homo sapiens) (P49760 whole entry, looked up): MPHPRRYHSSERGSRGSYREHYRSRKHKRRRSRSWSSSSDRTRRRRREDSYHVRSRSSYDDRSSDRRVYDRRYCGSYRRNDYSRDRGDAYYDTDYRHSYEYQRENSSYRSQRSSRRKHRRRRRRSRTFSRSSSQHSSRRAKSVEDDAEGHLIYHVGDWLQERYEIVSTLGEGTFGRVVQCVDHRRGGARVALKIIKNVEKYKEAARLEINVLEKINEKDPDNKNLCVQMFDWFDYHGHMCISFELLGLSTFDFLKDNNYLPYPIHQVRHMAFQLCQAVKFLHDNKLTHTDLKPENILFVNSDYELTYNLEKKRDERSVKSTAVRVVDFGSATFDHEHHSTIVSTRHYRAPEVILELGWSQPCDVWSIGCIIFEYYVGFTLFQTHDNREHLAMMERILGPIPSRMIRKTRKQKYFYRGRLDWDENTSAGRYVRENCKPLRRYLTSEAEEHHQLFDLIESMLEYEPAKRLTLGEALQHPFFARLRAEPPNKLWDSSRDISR

Usually IC50 stands for the point on the concentration scale where inhibition reaches its midpoint. For orientation: T/C means the ratio of treated to control. As usually defined, the residual activity is the signal under treatment as a percentage of the control signal. For orientation: bioavailability means dose-corrected exposure relative to a reference, in per cent. For orientation: inhibition means the change of the read-out against control, counted positive when it falls. `Cc1nc2ccc(-c3cc(N)nc(N)c3)nc2n1C1CC1`: the Activity was determined as 25% in [1]; 16.3% in data set [4]; 84% in [7]; 95% in data set [8]; 82% in data set [9]; 60% in data set [11]. In addition, the Activity in data set [13] was found to be 60%; in [14], 0%; in data set [18], 10.7%; in data set [23], 87%; in [24], 91%. Besides, the inhibition in vivo at 9.5 mg/kg in data set [2] came to 28%. The half-inhibitory concentration (IC50) in data set [3] turned out to be 126 nM; in data set [19] it was 77 nM. The values for the T/C in data set [5], in data set [15] and in data set [22] were 63%, 91% and 95%, respectively. In addition, the values for the residual activity in [6], in [16] and in [20] were 52%, 40% and 1.6%, respectively. Besides, the inhibition in vivo at 37.5 mg/kg in data set [10] worked out at 63%. Moreover, the inhibition in vivo at 75 mg/kg in [12] was determined as 92%. Also, the bioavailability in data set [17] is 39%. The compound further came in with an inhibition at 10 µM in data set [21] of 52%.

The values are drawn from ChEMBL document CHEMBL5042474, “Structure-Guided Discovery of Potent and Selective DYRK1A Inhibitors” (J Med Chem, 2021).
